Results reported in US20020013282A1, “CATIONIC AMPHIPILE COMPOSITIONS FOR INTERACELLUAR DELIVERY OF THERAPEUTIC MOLECULES” (priority 1995, published 2002).

Legend:
[1] = Transgene expression by protonation state of the amphiphile in transfecting composition with DOPE; conditions: for transgene expression activity: with DOPE
Experimental: With respect to amphiphile No. 67 (spermidine cholesterol carbamate), it has been observed that when providing this amphiphile for a transfecting composition with DOPE (itself provided as a zwitterion), transgene expression was best for the free base, but decreased if the amphiphile was prepared as an acetate salt. […] Under the circumstances described, the plasmid DNA provided for contacting with the amphiphile was prepared (without buffer) as a sodium salt in water.

[2] = Transacylation reaction of amphiphile with co-lipid DOPE on co-storage; assay type: physicochemical
Text: Although heretofore unrecognized in the art, it has been determined also that certain co-lipids may react chemically with certain types of cationic amphiphiles under conditions of co-storage, there resulting new molecular species. Generation of such new species is believed to occur via mechanisms such as transacylation. In this regard, see FIG. 4 which depicts a transacylation reaction involving spermidine cholesterol carbamate(No.67) and DOPE, there resulting lyso PE species and multiple forms of particular acyl-cationic amphiphile (designated No. 80).
With respect to such reactions, the following remarks are of interest. […] It is expected that these phenomena would also apply to lyophilized amphiphile/DOPE preparations.
Accordingly, it is highly preferred to maintain such amphiphile/DOPE preparations at very cold temperatures, such as −70 degrees C.

lungs of balb/c mice = tested on: lungs of balb/c mice
Experimental: This assay was used to assess the ability of the cationic amphiphiles of the invention to transfect cells in vivo from live specimens. In the assay, the lungs of balb/c mice were instilled intra-nasally (the procedure can also be performed trans-tracheally) with 100 μl of cationic amphiphile: DNA complex, which was allowed to form during a 15-minute period prior to administration according to the following procedure. The amphiphile (premixed with co-lipid, see below) was hydrated in water for 10 minutes, a period sufficient to yield a suspension at twice the final concentration required. This was vortexed for two minutes and aliquoted to provide 55 microliter quantities for each mouse to be instilled. Similarly, DNA encoding the reporter (CAT) gene was diluted with water to a concentration twice the required final concentration, and then aliquoted at 55 microliters for each mouse to be instilled. The lipid was gently combined with the DNA (in a polystyrene tube), and the complex allowed to form for 15 minutes before the mice were instilled therewith.
The plasmid used (pCMVHI-CAT, see Example 4) provides an encoding DNA for chloramphenicol transferase enzyme. Specifics on the amphiphile: DNA complexes are provided below.
Two days following transfection, mice were sacrificed, and the lungs and trachea removed, weighed, and homogenized in a buffer solution (250 mM Tris, pH 7.8, 5 mM EDTA). The homogenate was clarified by centrifugation, and the deacetylases therein were inactivated by heat treatment at 70° C. for 10 minutes. Lysate was incubated overnight with acetyl coenzyme A and C^14-chloramphenicol. CAT enzyme activity was then visualized by thin layer chromatography (“TLC”) following an ethyl acetate extraction.
The presence of the enzyme CAT will cause an acetyl group to be transferred from acetylcoenzyme A to C^14-chloramphenicol. The acetylated/radiolabeled chloramphenicol migrates faster on a TLC plate and thus its presence can be detected.
With respect to the comparison provided by FIG. 10, the following conditions are of note. The transfection solution for spermidine cholesterol carbamate contained 6 mM DNA measured as concentration of nucleotide, and 1.5 mM of cationic amphiphile. […] For transfection with DC-chol, the molar ratio of DC-chol to DOPE was 3:2, and the concentrations of cationic amphiphile and of DNA (as nucleotide) were 1.3 mM and 0.9 mM, respectively. For transfection with DMRIE, the molar ratio of DMRIE to DOPE was 1:1 and the concentrations of cationic amphiphile and of DNA were 1.7 mM and 1.2 mM, respectively.
Additional experiments were performed to compare in vivo the transfection efficiency of cationic amphiphiles depicted in FIGS. 1, 5 and 7. […] The compounds were administered intra-nasally using between 12 and 15 mice per compound. As in part A above, ng CAT activity was measured per 100 mg of tissue. […] Construction of pCF1/CAT and pCF2/CAT is described below in Example 4.
The in vivo data reported in FIGS. 13, 14 and 15 were compiled generally as follows. As aforementioned, FIGS. 10 and 11 report data from the complete in vivo optimization of amphiphile No. 53. Amphiphile No. 67 was subjected to a similar partial optimization. With respect to all of the other cationic amphiphiles reported on, and taking advantage of numerous structural similarities, optimized compositions for in vivo testing were extrapolated from in vitro results.

BALB/c mouse = assay: Intravenous delivery of CAT reporter transgene, organ targeting (lung, heart); assay type: in vivo
Experimental: The reporter plasmid pCF-1 CAT (Example 4) was used and was purified to minimize endotoxin (<1 EU/mg pDNA), and also chromosomal DNA contamination (<2%). Amphiphile No. 53 (1:1 with DOPE)/DNA complex was prepared according to the procedures of Example 3. The amphiphile was provided as the free base, the plasmid was prepared as a sodium salt in water, and the DOPE was provided in zwitterionic form.
The animal model was the BALB/c mouse. Females 6-8 weeks old weighing 16-18 g were injected intravenously using the tail vein, using 5 animals per group. The volume of lipid: pDNA complex used was 100 μl in all experiments. Unless noted otherwise, mice were sacrificed 48 h following administration of the complex. Organs were frozen immediately on dry ice to store for subsequent analysis.
Expression of chloramphenicol acetyl transferase (CAT) was quantitated using a radiochemical assay for CAT enzymatic activity. Organs were weighed and homogenized on ice in a lysis buffer containing protease inhibitors. The lysate was freeze-thawed 3X, centrifuged, and heated to 65° C. to inactivate deacetylases before adding it to a reaction mixture containing ^14C-chloramphenicol. […] Spots corresponding to the acylated reaction products were quantitated (Betagen) and converted to ng CAT activity using authentic CAT standards. […]

[3] = tested on: CFT-1 cell line (human cystic fibrosis bronchial epithelial cells); assay: Cell transfection assay (β-galactosidase expression from pCMVβ); assay type: cell-based; conditions: amphiphile:DOPE 1:1, CFT-1 cells
[4] = tested on: Immortalized human cystic fibrosis airway cells (CFT-1); assay: SPQ assay of cAMP-stimulated Cl− channel activity after transfection with pCMV-CFTR; assay type: cell-based; conditions: amphiphile:DOPE 1:1, 10.5 μmolar each, 30 μmolar pCMV-CFTR; 48 hours after transfection
Experimental: Immortalized human cystic fibrosis airway cells (CFT-1, as above) were used.
In preparation for the assay, the cells were grown on glass coverslips until approximately 60% confluent. The cells were then transfected with a complex of spermidine cholesterol carbamate: DOPE (1:1) and a plasmid(pCMV-CFTR) containing a cDNA that encodes wild type human CFTR. pCMV-CFTR plasmid is a construct containing the encoding sequence for CFTR and the following regulatory elements, a CMV promoter and enhancer, and an SV40 polyadenylation signal. Additional constructs suitable for the practice of this example include pMT-CFTR, Cheng et al., Cell. 63, 827-834 (1990). The complex used was 10.5 μmolar of spermidine cholesterol carbamate (also of DOPE) and 30 μmolar of pCMV-CFTR based on nucleotide.
48 hours after amphiphile-mediated transfection, cells were tested for cAMP-stimulated Cl^−channel activity using the 6methoxy-N-(3-sulfopropyl)quinolinium (“SPQ”) assay. […] In the assay, cAMP-dependent Cl^−channel activity was assessed using “SPQ” (from Molecular Probes, Eugene, Oreg.), a halide-sensitive fluorophore. Increases in halide permeability results in a more rapid increase in SPQ fluorescence, and the rate of change (rather than the absolute change in fluorescence) is the important variable in assessing Cl^−permeability. […]

[5] = Zeta potential of amphiphile/DNA complex; assay type: physicochemical; conditions: 1:1 with DOPE
Experimental: Zeta potentials of the samples can be measured (using typically 5 measurements per sample) employing a Malvern Zetasizer 4 (Malvern Instruments, Southborough, Mass.) and a zeta cell (AZ-104 cell, Malvern Instruments Co.). Dried lipid films containing the cationic lipid and DOPE are hydrated in distilled water (dH2O). DNA typically should be diluted to a concentration of about 300 μM in dH2O. The DNA solution (1.5 mL) can then be added to an equal volume of cationic lipid vesicles and incubated at room temperature for 10 min. Enough NaCl (for example, 4 mM stock) may be added to result in a final concentration of 1 mM NaCl. If necessary, the sample can be diluted further with 1 mM NaCl (to maintain a photomultiplier signal below 4000 counts per second), and distilled water can be used in place of the NaCl solutions.

[6] = 0.6 mM amphiphile, 0.6 or 1.2 mM DOPE, 3.6 mM plasmid DNA
[7] = 1.0-1.5 mM amphiphile, cholesterol 1:1, DNA 4.0-6.0 mM, pCMVHI-CAT, intra-nasal

For `CC(C)CCCC(C)C1CCC2C3CC=C4CC(OC(=O)N(CCCN)CCCCNCCCN)CCC4(C)C3CCC12C` (centres unmarked) [amphiphile No. 67], which transgene expression ([1]; amphiphile as free base, with DOPE (zwitterion)) is on record?
Its transgene expression is “best”.

What about the transgene expression activity ([1]; amphiphile as mono and di acetate salts) of the same compound?
Its transgene expression activity is “decreased step-wise”.

What about the transgene expression activity ([1]; amphiphile as tri-acetate salt) of the same compound?
Its transgene expression activity is “minimal”.

What about the “transacylation with DOPE” value ([2]; amphiphile and co-lipid dried down to a thin film from chloroform) of the same compound?
Its value is “transacylation also occurs”.

What about the “transacylation with DOPE” value ([2]; amphiphile prepared as mono, di, or tri acetate salt) of the same compound?
The value was “slow transacylations”.

What about the “transacylation with DOPE” value ([2]; mixture of amphiphile and DOPE in chloroform solvent) of the same compound?
The value was “does not appear to participate in such reactions”.

And the “transfection enhancement in relation to N^1-thermospermine cholesteryl carbamate and N^1-spermidine cholesteryl carbamate” value (lungs of balb/c mice; 4 mM DNA (as nucleotide), 1 mM amphiphile, 2 mM co-lipid, procedures of Example 3 part B)?
The value was “at least 30 fold”.

Which results are given for `CC(C)CCCC(C)C1CCC2C3CC=C4CC(OC(=O)NCCCNCCCCN)CCC4(C)C3CCC12C` (centres unmarked) [amphiphile No. 37, N^1-spermidine cholesteryl carbamate]?
improvement in reporter gene expression, free base form versus fully protonated hydrochloride salt (lungs of balb/c mice; [6]): ~50 fold; reporter gene expression, free base form compared to fully protonated hydrochloride salt (lungs of balb/c mice; [6]): dramatically increased

Which “organ distribution of CAT expression” value (BALB/c mouse; amphiphile/DNA molar ratio less than about 0.5, DNA 0.9 mM) does the source give for `CC(C)CCCC(C)C1CCC2C3CC=C4CC(OC(=O)N(CCCN)CCCCN)CCC4(C)C3CCC12C` (centres unmarked) [amphiphile No. 53, N^4-spermidine cholesteryl carbamate] here?
The value was “strongly weighted toward the lung”.

What about the “organ distribution of CAT expression” value (BALB/c mouse; amphiphile/DNA ratio 1.25, DNA 0.9 mM) of the same compound?
The value was “substantial expression was found in the heart”.

What about the “transfection efficiency (β-galactosidase expression) improved by a factor, relative to DMRIE:DOPE (1:1)” value [3] of the same compound?
Its value is “about 5”.

What about the “cells exhibiting measurable cAMP-stimulated Cl− channel activity” value [4] of the same compound?
Its value is “Approximately 60%”.

What about the “zeta potential of the complex” value ([5]; amphiphile/DNA molar ratio less than about 0.5) of the same compound?
The value was “about −30 mV”.

What about the “zeta potential of the complex” value ([5]; amphiphile/DNA ratio of 1.25) of the same compound?
The value was “about +30 mV”.

And the “enhancement of in vivo transfection (ng CAT activity per 100 mg tissue) in relation to DMRIE and DC-Chol” value (lungs of balb/c mice; 1.5 mM amphiphile, 1:1 DOPE, 6 mM DNA (pCMVHI-CAT), intra-nasal, 2 days)?
The value was no less than 20 fold.

And the “transfection enhancement in relation to N^1-spermidine cholesteryl carbamate” value (lungs of balb/c mice; 6 mM DNA (as nucleotide), 1.5 mM amphiphile, 1.5 mM co-lipid, procedures of Example 3 part B)?
Its value is “about 30 fold”.

And the “transfection efficiency (ng CAT/100 mg tissue) with cholesterol as co-lipid compared with DOPE as co-lipid” value (lungs of balb/c mice; [7])?
Its value is “less effective”.

And the “transfection with cholesterol as co-lipid compared with DC-Chol/DOPE” value (lungs of balb/c mice; [7])?
Its value is “substantially more effective”.

What about the “toxicity to the target cells” value (lungs of balb/c mice; about 0.75 mM amphiphile, 3.0 mM plasmid, versus 1.5 mM / 6 mM) of the same compound?
Its value is “less toxic”.
